Patent US6642217B2, “Triterpenes having human antifungal and antiyeast activity” (Naturtek, LLC, priority 2000, dated 2003)

Experiments:
Microsporum canis [1] = assay: Direct addition method, solid compound in Sabouraud dextrose agar; format: cell-based; details: against Microsporum canis
Procedure: (§1) Direct addition method. Sabouraud dextrose agar was prepared according to the manufacturer's instructions and 5.0 ml was dispensed in each 100×25 mm tube. The tubes were autoclaved. To each tube containing 5.0 ml of liquid agar at 45° C., 20 mg of solid test compound was added, to give a final concentration of 4 mg/ml. The agar was solidified in slants. The fungal cultures were then innoculated. The slants were incubated at 25-28 ° C. for 10-12 days, and the growth of the fungus was recorded every second day. The results in Table 2 indicate growth at the 12th day of inoculation.

Microsporum audouinni [2] = assay: as above; format: cell-based, Microsporum audouinii; design: key to Fungal growth: +++: Maximum Fungal Growth; ++: Moderate Fungal Growth; +: Minimum Fungal Growth; +/−: Very little Fungal Growth; −: No Fungal Growth; details: 4 mg/mL of agar; 12th day after inoculation
Summary of the method: (§2)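 Presence or absence of fungal growth was noted on alternate days, with the day-12 observation used. Test material, added undissolved to 45° C. Sabouraud dextrose medium to reach 4 mg/ml final, was solidified as slants before inoculation and incubation at 25-28° C.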

[3] = tested on: Trichophyton mentagrophytes; assay: as above; format: cell-based; design: key: +++: Maximum Fungal Growth; ++: Moderate Fungal Growth; +: Minimum Fungal Growth; +/−: Very little Fungal Growth; −: No Fungal Growth; details: 4 mg/mL of agar; 12th day after inoculation
Summary of the method: as §2

Microsporum gypseum [4] = assay: as above; format: cell-based; design: key: +++: Maximum Fungal Growth; ++: Moderate Fungal Growth; +: Minimum Fungal Growth; +/−: Very little Fungal Growth; −: No Fungal Growth; details: 4 mg/mL of agar; 12th day after inoculation
Summary of the method: as §2

Epidermophyton floccosum [5] = assay: as above; format: cell-based; design: key: +++: Maximum Fungal Growth; ++: Moderate Fungal Growth; +: Minimum Fungal Growth; +/−: Very little Fungal Growth; −: No Fungal Growth; details: 4 mg/mL of agar; 12th day after inoculation
Summary of the method: as §2

Pityrosporum ovale [6] = assay: as above; format: cell-based; design: key: +++: Maximum Fungal Growth; ++: Moderate Fungal Growth; +: Minimum Fungal Growth; +/−: Very little Fungal Growth; −: No Fungal Growth; details: 4 mg/mL of agar; 12th day after inoculation
Summary of the method: as §2

Trichophyton rubrum [7] = assay: as above; format: cell-based; design: key: +++: Maximum Fungal Growth; ++: Moderate Fungal Growth; +: Minimum Fungal Growth; +/−: Very little Fungal Growth; −: No Fungal Growth; details: 4 mg/mL of agar; 12th day after inoculation
Summary of the method: as §2

Microsporum canis [8] = assay: as above; format: cell-based; design: key: +++: Maximum Fungal Growth; ++: Moderate Fungal Growth; +: Minimum Fungal Growth; +/−: Very little Fungal Growth; −: No Fungal Growth; details: 4 mg/mL of agar; 12th day after inoculation
Summary of the method: as §2

Trichophyton tonsuran [9] = assay: as above; format: cell-based, Trichophyton tonsurans; design: key: +++: Maximum Fungal Growth; ++: Moderate Fungal Growth; +: Minimum Fungal Growth; +/−: Very little Fungal Growth; −: No Fungal Growth; details: 4 mg/mL of agar; 12th day after inoculation
Procedure: as §1

Pityrosporum ovale [10] = assay: Direct addition into the Pityrosporum agar; format: cell-based; design: key to Pityrosporum ovale growth: +++: Maximum Growth; ++: Moderate Growth; +: Minimum Growth; +/−: Very Little Growth; −: No Growth; details: for Pityrosporum ovale growth: 4 mg/ml in the agar, 18 hours after inoculation
Procedure: as §1, with “The slants were incubated at 25-28 ° C. for 10-12 days, and the growth of the fungus was recorded every second day. The results in Table 2 indicate growth at the 12th day of inoculation.” left out

[11] = tested on: Trichophyton mentagrophytes; assay: Direct addition to liquid culture method, optical density at 600 nm; format: cell-based; details: 25, 50 and 100 μg/ml; 12 days
Procedure: Direct addition to liquid culture method. Sabouraud dextrose broth was prepared according to the manufacturer's instructions, and 7.0 ml was dispensed into 100×25 mm tubes and autoclaved. To each tube containing 7.0 ml of liquid broth, the test compounds dissolved in DMSO were added to final concentrations of 25, 50, and 100 μg/ml. The tubes were then inoculated with 150 μl of a fungus suspension and incubated at 25-28° C. for 10-12 days. Growth was measured every second day by measuring optical density at 600 nm against a blank containing sterile broth.

Microsporum gypseum [12] = assay: Agar dilution method, growth on Sabouraud dextrose agar slants; format: cell-based; design: key: +++: Maximum Fungal Growth; ++: Moderate Fungal Growth; +: Minimum Fungal Growth; +/−: Very little Fungal Growth; −: No Fungal Growth; details: 12th day after inoculation
Summary of the method: (§3)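 Compound, dissolved in DMSO, was mixed into molten Sabouraud dextrose agar at 45 °C and set as slants before fungal inoculation. Slants were incubated at 25-28 °C for 10-12 days, with growth scored every second day.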

Pityrosporum ovale [13] = assay: as above; format: cell-based; design: key: +++: Maximum Fungal Growth; ++: Moderate Fungal Growth; +: Minimum Fungal Growth; +/−: Very little Fungal Growth; −: No Fungal Growth; details: 12th day after inoculation
Summary of the method: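 In this agar dilution format, DMSO solutions of compound went into liquid Sabouraud dextrose agar (45 °C), which was slanted and inoculated. Incubation ran 10-12 days at 25-28 °C.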

Trichophyton rubrum [14] = assay: as above; format: cell-based; design: key: +++: Maximum Fungal Growth; ++: Moderate Fungal Growth; +: Minimum Fungal Growth; +/−: Very little Fungal Growth; −: No Fungal Growth; details: 12th day after inoculation
Summary of the method: as §3

Microsporum canis [15] = assay: as above; format: cell-based; design: key: +++: Maximum Fungal Growth; ++: Moderate Fungal Growth; +: Minimum Fungal Growth; +/−: Very little Fungal Growth; −: No Fungal Growth; details: 12th day after inoculation
Summary of the method: as §3

Epidermophyton floccosum [16] = assay: as above; format: cell-based; design: key to Fungal growth: +++: Maximum Fungal Growth; ++: Moderate Fungal Growth; +: Minimum Fungal Growth; +/−: Very little Fungal Growth; −: No Fungal Growth; details: 12th day after inoculation
Summary of the method: as §3

Trichophyton rubrum [17] = assay: Direct addition method, solid compound in Sabouraud dextrose agar; format: cell-based; design: key: +++: Maximum Fungal Growth; ++: Moderate Fungal Growth; +: Minimum Fungal Growth; +/−: Very Little Fungal Growth; −: No Fungal Growth; details: 4 mg/mL of agar; 12th day after inoculation
Procedure: as §1

Microsporum audouinni [18] = assay: Agar dilution method, growth on Sabouraud dextrose agar slants; format: cell-based, Microsporum audouinii; design: key: +++: Maximum Fungal Growth; ++: Moderate Fungal Growth; +: Minimum Fungal Growth; +/−: Very little Fungal Growth; −: No Fungal Growth; details: 12th day after inoculation
Summary of the method: as §3

Trichophyton tonsuran [19] = assay: as above; format: cell-based, Trichophyton tonsurans; design: key: +++: Maximum Fungal Growth; ++: Moderate Fungal Growth; +: Minimum Fungal Growth; +/−: Very little Fungal Growth; −: No Fungal Growth; details: 12th day after inoculation
Summary of the method: as §3

[20] = tested on: Trichophyton mentagrophyte; assay: as above; format: cell-based, Trichophyton mentagrophytes; design: key to Fungal growth: +++: Maximum Fungal Growth; ++: Moderate Fungal Growth; +: Minimum Fungal Growth; +/−: Very little Fungal Growth; −: No Fungal Growth; details: 12th day after inoculation
Summary of the method: as §3

C=C(C)[C@@H]1CC[C@]2(COC(=O)/C=C\C(=O)O)CC[C@]3(C)[C@H](CC[C@@H]4[C@@]5(C)CC[C@H](O)C(C)(C)[C@@H]5CC[C@]43C)[C@@H]12 [Betulin-28-maleate]
−: Fungal growth (Epidermophyton floccosum [5]) | Fungal growth (Pityrosporum ovale [6]) | Fungal growth (Microsporum canis [8])
++: Fungal growth (Microsporum audouinni [2]) | Fungal growth [3] | Fungal growth (Trichophyton rubrum [7]) | Fungal growth (Trichophyton tonsuran [9])
+++: Fungal growth (Microsporum gypseum [4])
against Microsporum canis: best anti-fungal or anti-yeast activity by the direct addition method (Microsporum canis [1])

C=C(C)[C@@H]1CC[C@]2(C)CC[C@@]3(C)C(CCC4[C@@]5(C)CC[C@H](O)C(C)(C)C5CC[C@]43C)C12 (stereo partly drawn) [Lupeol, lup-20(29)-ene-3β-ol]
+: Fungal growth (Microsporum audouinni [2]) | Fungal growth (Trichophyton rubrum [7]) | Fungal growth (Microsporum canis [8]) | Pityrosporum ovale growth (Pityrosporum ovale [10])
−: Fungal growth (Epidermophyton floccosum [5]) | Fungal growth (Pityrosporum ovale [6])
inhibited the growth: Growth inhibition in liquid culture (optical density, FIG. 1) [11]

C[C@@H]1[C@H](O)[C@@H](C)/C=C/C=C/CC/C=C/C=C/C=C/C=C/C(O[C@H]2O[C@H](C)[C@@H](O)[C@H](N)[C@@H]2O)CC2O[C@](O)(CC(O)C(O)CCC(O)CC(O)CC(O)CC(=O)O[C@H]1C)CC(O)C2C(=O)O (stereo partly shown) [Nystatin, reference compound]
inhibits growth: Growth inhibition of Pityrosporum ovale by the direct addition method (Pityrosporum ovale [10]; 4 mg/ml)
+/−: Fungal growth (Microsporum gypseum [12]; 250 μg/ml) | Fungal growth (Pityrosporum ovale [13]; 250 μg/ml) | Fungal growth (Trichophyton rubrum [14]; 500 μg/ml) | Fungal growth (Microsporum canis [15]; 250 μg/ml) | Pityrosporum ovale growth (Pityrosporum ovale [10]) | Fungal growth (Epidermophyton floccosum [16]; 125 μg/ml) | Fungal growth (Trichophyton rubrum [17]) | Fungal growth (Trichophyton tonsuran [19]; 250 μg/ml)
+: Fungal growth (Microsporum gypseum [12]; 125 μg/ml) | Fungal growth (Pityrosporum ovale [13]; 125 μg/ml) | Fungal growth (Trichophyton rubrum [14]; 125 μg/ml) | Fungal growth (Trichophyton rubrum [14]; 250 μg/ml) | Fungal growth (Microsporum canis [15]; 125 μg/ml) | Fungal growth (Trichophyton tonsuran [19]; 125 μg/ml) | Fungal growth ([20]; 125 μg/ml) | Fungal growth ([20]; 250 μg/ml)
−: Fungal growth (Microsporum gypseum [12]; 500 μg/ml) | Fungal growth (Microsporum gypseum [12]; 1000 μg/ml) | Fungal growth (Pityrosporum ovale [13]; 500 μg/ml) | Fungal growth (Pityrosporum ovale [13]; 1000 μg/ml) | Fungal growth (Trichophyton rubrum [14]; 1000 μg/ml) | Fungal growth (Microsporum canis [15]; 500 μg/ml) | Fungal growth (Microsporum canis [15]; 1000 μg/ml) | Fungal growth (Microsporum audouinni [2]) | Fungal growth (Epidermophyton floccosum [5]) | Fungal growth (Pityrosporum ovale [6]) | Fungal growth (Microsporum canis [8]) | Fungal growth (Epidermophyton floccosum [16]; 250 μg/ml) | Fungal growth (Epidermophyton floccosum [16]; 500 μg/ml) | Fungal growth (Epidermophyton floccosum [16]; 1000 μg/ml) | Fungal growth (Microsporum audouinni [18]; 125 μg/ml) | Fungal growth (Microsporum audouinni [18]; 250 μg/ml) | Fungal growth (Microsporum audouinni [18]; 500 μg/ml) | Fungal growth (Microsporum audouinni [18]; 1000 μg/ml) | Fungal growth (Trichophyton tonsuran [19]; 500 μg/ml) | Fungal growth (Trichophyton tonsuran [19]; 1000 μg/ml) | Fungal growth ([20]; 500 μg/ml) | Fungal growth ([20]; 1000 μg/ml)
